Entries after “also recorded” stand apart in the source; their conditions may differ. Where two headings read alike, the source gives them in different places.
What was measured:
AMP Kinase = assay: Western blot of phosphorylated (activated) AMP Kinase in HIB1B cells; assay type: cell-based; conditions: 24 hours
Procedure: (§1) HIB1B brown fat cells were grown in DMEM (10% cosmic calf serum)+0.25 mg/ml penicillin/streptomycin at 37° C., 10% CO2.
(§2) In FIG. 2A, HIB1B cells were treated with 2 μM FCCP for 0-72 hours. In FIG. 2B, cells were treated with 50 μM FCCP for 0-48 hours. In FIG. 2C, cells were treated for 24 hours with either 50 μM FCCP or 500 μM AICAR, a compound that activates AMP Kinase. Protein was isolated, run on an SDS polyacrylamide gel, and transferred to a PVDF membrane, and blotted for the proteins indicated in the figures.

PGC-1α [1] = assay: Northern blot of PGC-1α expression in HIB1B brown fat cells; assay type: cell-based
Procedure: as §1
(§3) In FIGS. 1A and 1B, HIB1B cells were treated with 25 μM FCCP for 0-25 hours. In FIG. 1C, HIB1B cells were treated for 5 hours with 0-200 μM FCCP. RNA was extracted using trizol and was resuspended in ddH2O. RNA was run on a 1% agarose-formaldehyde gel, and 30 ug of RNA was used per lane. 36B4 was used as the loading control.
In FIG. 5A, HIB1B cells were treated with 0-15 μM Antimycin A, a Complex III inhibitor. In FIG. 5B, cells were treated for either 5 or 10 hours with 0-50 μM Atractlyoside, an adenine nucleotide transporter (ANT) inhibitor. RNA was extracted, run on a formaldehyde gel and transferred to a nylon membrane as previously described. Membranes were blotted for PGC-1α mRNA.
In FIG. 7, HIB1B cells were treated for 5 hours with 0-50 μM Ruthenium Red (RR), an inhibitor of the mitochondrial Ca^2+ uniporter, simultaneously with either 5 μM or 25 μM FCCP as indicated in the figure. Untreated cells served as a control. RNA was extracted and analyzed as previously described. Membranes were blotted for PGC-1α. 36B4 served as the loading control.
(§4) In FIG. 11A, 10T 1/2 cells were treated with 50 μM FCCP for 16 hours; in FIG. 11B, cells were treated for 72 hours with 25 μM FCCP. RNA was extracted using trizol and gene expression was measured using real time PCR. All expression levels were adjusted to actin and then the fold induction of expression was determined using the untreated cells as the control. In FIG. 11C, 10T 1/2 cells were treated for 16 hours with 50 μM FCCP. Lactate levels were measured using a lactate kit (Trinity Biotech), cells were counted, and lactate was graphed as mg lactate per million cells. In FIG. 12, HIB1B preadipocytes were treated with 25 μM FCCP, 250 μM DNP, 750 μM DNP or 1 mM DNP. RNA was extracted and run on a 1% agarose-formaldehyde gel (30 μg of RNA per lane). The gel was transferred to a nylon membrane and was probed for PGC-1α RNA and 36B4 RNA (36B4 represents the loading control).

ATP synthase = assay: Real time PCR of ATP synthase expression in 10T 1/2 fibroblasts; assay type: cell-based; conditions: 16 hours
Procedure: (§5) HIB1B brown fat cells were grown in DMEM (10% cosmic calf serum)+0.25 mg/ml penicillin/streptomycin at 37° C., 10% CO2. 10T 1/2 fibroblasts were grown in DMEM+10% fetal bovine serum+0.25 mg/ml penicillin/streptomycin at 37° C., 10% CO2.
(§6) 10T 1/2 cells were treated with 50 μM FCCP, 10 μM BAPTA, a calcium chelator, or both FCCP and BAPTA for 16 hours. RNA was extracted using trizol and gene expression was measured using real time PCR. All expression levels were adjusted to actin and then the fold induction of expression was determined using the untreated cells as the control.
(§7) 10T 1/2 fibroblasts were grown in DMEM+10% fetal bovine serum+0.25 mg/ml penicillin/streptomycin at 37° C., 10% CO2. HIB1B cells were grown in DMEM+10% cosmic calf serum+0.25 mg/ml penicillin/streptomycin at 37° C., 10% CO2.
as §4, with “In FIG. 12, HIB1B preadipocytes were treated with 25 μM FCCP, 250 μM DNP, 750 μM DNP or 1 mM DNP. RNA was extracted and run on a 1% agarose-formaldehyde gel (30 μg of RNA per lane). The gel was transferred to a nylon membrane and was probed for PGC-1α RNA and 36B4 RNA (36B4 represents the loading control).” left out

UCP2 = conditions: Fao cells, 24 hour treatment, 2 μM and 25 μM FCCP
Procedure: (§8) Fao liver hepatoma cells were grown in RPMI (10% fetal bovine serum)+0.25 mg/ml penicillin/streptomycin at 37° C., 5% CO2.
(§9) In FIG. 6A, Fao liver hepatoma cells were treated with 2 μM FCCP for 0-48 hours. In FIGS. 6B and 6C, cells were treated for 24 hours with either 2 μM or 25 μM FCCP. RNA was extracted and analyzed as previously described.

PGC-1β [2] = conditions: Fao cells
Procedure: as §8, §9

COX II [3] = conditions: PGC-1α knock out preadipocytes, 25 μM FCCP, 24 hours
Procedure: (§10) Wild type and PGC-1α knock out preadipocytes were grown in DMEM+20% fetal bovine serum+0.25 mg/ml penicillin/streptomycin at 37° C., 10% CO2.
(§11) Wild type and PGC-1α knock out preadipocytes were treated for 24 hours with or without 25 μM FCCP. RNA was extracted using trizol and gene expression was measured using real time PCR. All expression levels were adjusted to actin and then the fold induction of expression was determined using the untreated cells as the control.

NRF-1 [4] = conditions: PGC-1α knock out preadipocytes, 25 μM FCCP, 24 hours
Procedure: as §10, §11

ERRα = conditions: PGC-1α knock out preadipocytes, 25 μM FCCP, 24 hours
Procedure: as §10, §11

PGC-1β [5] = conditions: PGC-1α knock out preadipocytes, 25 μM FCCP, 24 hours
Procedure: as §10, §11

cytochrome c [6] = conditions: PGC-1α knock out preadipocytes, 25 μM FCCP, 24 hours
Procedure: as §10, §11

[7] = system: adenine nucleotide translocase (ANT); conditions: PGC-1α knock out preadipocytes, 25 μM FCCP, 24 hours
Procedure: as §10, §11

PGC-1α [8] = assay: Real time PCR of PGC-1α expression in 10T 1/2 fibroblasts; assay type: cell-based
Procedure: as §5, §6, §7, §4

PGC-1α protein = conditions: HIB1B cells, 2 μM FCCP, up to 72 hours
Procedure: as §1, §2

cytochrome c protein = conditions: HIB1B cells, 50 μM FCCP, up to 48 hours
Procedure: as §1, §2

[9] = in vivo; cited from earlier work
COX II [10] = assay: Real time PCR of COX II expression in 10T 1/2 fibroblasts; assay type: cell-based; conditions: 16 hours
Procedure: as §5, §6, §7
as §4, with “In FIG. 12, HIB1B preadipocytes were treated with 25 μM FCCP, 250 μM DNP, 750 μM DNP or 1 mM DNP. RNA was extracted and run on a 1% agarose-formaldehyde gel (30 μg of RNA per lane). The gel was transferred to a nylon membrane and was probed for PGC-1α RNA and 36B4 RNA (36B4 represents the loading control).” left out

cytochrome c [11] = assay: Real time PCR of cytochrome c expression in 10T 1/2 fibroblasts; assay type: cell-based; conditions: 16 hours
Procedure: as §5, §6, §7
as §4, with “In FIG. 12, HIB1B preadipocytes were treated with 25 μM FCCP, 250 μM DNP, 750 μM DNP or 1 mM DNP. RNA was extracted and run on a 1% agarose-formaldehyde gel (30 μg of RNA per lane). The gel was transferred to a nylon membrane and was probed for PGC-1α RNA and 36B4 RNA (36B4 represents the loading control).” left out

PGC-1β [12] = conditions: HIB1B cells
Procedure: as §1, §3

PGC-1α [13] = conditions: HIB1B cells, 8 hours
Procedure: as §1
In FIG. 3, cells were treated for 8 hours as indicated on the figure. RNA was extracted as previously described and quantified using real time PCR. PGC-1α mRNA levels were normalized to TBP prior to analysis.

HIB1B brown fat cells = conditions: 25 μM FCCP
Procedure: as §1
In FIG. 4, HIB1B cells were treated for either 5 or 10 hours with either 0 μM or 25 μM FCCP. ATP levels were measured using the Calbiochem ATP assay kit. For analysis, ATP levels were compared to those of untreated cells at the 5 and 10 hour time points.

NRF-1 [14] = conditions: 10T 1/2 fibroblasts, 50 μM FCCP, 16 hours
Procedure: as §7, §4

10T 1/2 fibroblasts = conditions: 50 μM FCCP, 16 hours
Procedure: as §7, §4

PGC-1β [15] = assay: Real time PCR of PGC-1β expression in 10T 1/2 fibroblasts; assay type: cell-based; conditions: 16 hours
Procedure: as §5, §6, §7
as §4, with “In FIG. 12, HIB1B preadipocytes were treated with 25 μM FCCP, 250 μM DNP, 750 μM DNP or 1 mM DNP. RNA was extracted and run on a 1% agarose-formaldehyde gel (30 μg of RNA per lane). The gel was transferred to a nylon membrane and was probed for PGC-1α RNA and 36B4 RNA (36B4 represents the loading control).” left out

animals = conditions: large doses of DNP; cited from earlier work
[16] = 10T 1/2 fibroblasts, 50 μM FCCP
[17] = 5 hours, increasing doses of FCCP (0-200 μM)
[18] = 10T 1/2 cells, 10 μM BAPTA with 50 μM FCCP

Procedure for mice: The procedures to be used in these experiments are as follows: IP injections of the chemical uncoupling agent FCCP are performed daily (see experimental design for dose and time information). The body temperature of the mice is measured one hour after injections so as to monitor pain and distress. If the temperature rises above 42 degrees the mice are sacrificed. The following tissues are collected from euthanized mice: brown fat, skeletal muscle, and liver, which contribute the most to standard metabolic rate. In addition, heart, pancreas, large intestine, small intestine, gall bladder, spleen, brain, testes, and ovary are collected. Tissues are used to assess PGC-1 gene expression and protein levels.
The maximum dose of FCCP that is used in this experiment is 0.5 mg/kg/day. The experiment is performed in C57 BL/6J and ob/ob (C57 BL/6J background) mice ordered from Jackson Laboratories.
Mice receive one IP injection of FCCP daily. The following experiment is repeated three times for statistical significance.
Body temperature is measured one hour after injections and weight is recorded every three days. Mice are sacrificed to avoid pain if the body temperature rises above 42 degrees. After the treatments as described above the mice are sacrificed using cervical dislocation with pre-anesthesia. […]

Compound: NC(=O)c1ncn([C@@H]2O[C@H](CO)[C@@H](O)[C@H]2O)c1N [AICAR]
- AMP Kinase activation (phospho-AMP kinase) (AMP Kinase; 500 μM AICAR, positive control): activation

Compound: Antimycin A
- PGC-1α expression (PGC-1α [1]; 5 μM Antimycin A): increased
- PGC-1α expression levels (PGC-1α [1]; 10 μM Antimycin): increase

Compound: N#CC(C#N)=NNc1ccc(OC(F)(F)F)cc1 [FCCP, carbonylcyanide-p-trifluoromethoxyphenylhydrazone]
- ATP synthase expression (ATP synthase; [16]): induced
- UCP 2 expression levels (UCP2): increased
- PGC-1β expression levels (PGC-1β [2]; 2 μM FCCP, after approximately 24 hours): increased
- PGC-1β expression levels (PGC-1β [2]; 24 hour treatment, 2 μM and 25 μM FCCP): increased
- FCCP induction of COX II in cells that lack PGC-1α (COX II [3]): blocked
- FCCP induction of NRF-1 in cells that lack PGC-1α (NRF-1 [4]): blocked
- FCCP induction of ERRα in cells that lack PGC-1α (ERRα): blocked
- FCCP induction of PGC-1β in cells that lack PGC-1α (PGC-1β [5]): blocked
- FCCP induction of cytochrome c in cells that lack PGC-1α (cytochrome c [6]): blocked
- FCCP induction of adenine nucleotide translocase (ANT) in cells that lack PGC-1α [7]: blocked
- PGC-1α RNA and protein levels in brown fat and muscle tissue (mice; daily IP injection of FCCP): increase
- body weight and adiposity (mice; safe dose of FCCP, daily IP injection): decrease
- expression of the PGC-1 coactivators and their target genes after long term treatment (PGC-1α [8]; 10T 1/2 fibroblasts, 25 uM FCCP, 72 hours): remain elevated
- PGC-1α expression (PGC-1α [8]; 10T 1/2 fibroblasts, 50 μM FCCP, 16 hours): induced
- PGC-1α protein expression (PGC-1α protein): induced
- cytochrome c protein levels (cytochrome c protein): induced
- LD50 for FCCP relative to that of DNP [9]: about 5 times less
- COX II expression (COX II [10]; [16]): induced
- cytochrome c expression (cytochrome c [11]; [16]): induced
- AMP Kinase activation (phospho-AMP kinase) (AMP Kinase; 50 μM FCCP): activated
- PGC-1β expression levels (PGC-1β [12]; 25 μM FCCP, after 10-15 hours, remained induced until 25 hours): induced
- PGC-1β expression levels (PGC-1β [12]; [17]): did not increase
- induction of PGC-1 expression levels, real time PCR (PGC-1α [13]; 25 μM FCCP): 5.5 fold
- increase in PGC-1α expression, real time PCR (PGC-1α [13]; 25 μM and 50 μM FCCP): 5-6 fold
- induction of PGC-1α levels, real time PCR (PGC-1α [13]; 50 μM FCCP): 5 fold
- drop in cellular ATP levels (HIB1B brown fat cells; 5 hours, versus untreated cells): 25%
- ATP levels below that of untreated cells (HIB1B brown fat cells; 10 hours): approximately 20%
- PGC-1α expression levels (PGC-1α [1]; 25 μM FCCP, after 5 hours, sustained for 20 additional hours): induced
- PGC-1α expression levels (PGC-1α [1]; [17]): increased
- NRF-1 expression (NRF-1 [14]): induced
- lactate levels (10T 1/2 fibroblasts): induced
- PGC-1β expression (PGC-1β [15]; [16]): induced

Compound: N.N.N.N.N.N.N.N.N.N.N.N.N.N.[Cl-].[Cl-].[Cl-].[Cl-].[Cl-].[Cl-].[O-2].[O-2].[Ru+3].[Ru+3].[Ru+4] [Ruthenium Red]
- effect on FCCP-mediated induction of PGC-1α expression (PGC-1α [1]; 5 hours, 0-50 μM Ruthenium Red with 5 μM or 25 μM FCCP, reduced at 5, 10 and 25 μM RR): blocked part

Compound: C=C1[C@@H]2CC[C@H]3[C@]4(C)C[C@H](O[C@@H]5O[C@H](CO)[C@@H](OS(=O)(=O)O)[C@H](OS(=O)(=O)O)[C@H]5OC(=O)CC(C)C)C[C@@H](C(=O)O)[C@H]4CC[C@]3(C2)[C@H]1O [atractyloside]
- PGC-1α expression (PGC-1α [1]; 5 μM atractyloside, 10 hours): increased
- PGC-1α expression (PGC-1α [1]; 50 μM atractyloside, 5 hours): increased

Compound: O=C(O)CN(CC(=O)O)c1ccccc1OCCOc1ccccc1N(CC(=O)O)CC(=O)O [BAPTA]
- effect on FCCP-mediated induction of ATP synthase (ATP synthase; [18]): blocked
- effect on FCCP-mediated induction of PGC-1α (PGC-1α [8]; 10T 1/2 cells, 10 μM BAPTA with 50 μM FCCP, 16 hours): blocked
- effect on FCCP-mediated induction of COX II (COX II [10]; [18]): blocked
- effect on FCCP-mediated induction of cytochrome c (cytochrome c [11]; [18]): blocked
- effect on FCCP-mediated induction of PGC-1β (PGC-1β [15]; [18]): blocked

Compound: O=[N+]([O-])c1ccc(O)c([N+](=O)[O-])c1 [DNP, 2,4-dinitrophenol]
- toxic effect of large doses (animals): almost immediate onset of rigor mortis
- PGC-1α expression (PGC-1α [1]; 5 hours, three concentrations of DNP (250 μM, 750 μM, 1 mM)): caused an increase; also recorded: induces

Reference: patent US7691578B2, “Methods and compositions for treating obesity” (Dana-Farber Cancer Institute, Inc., priority 2004, dated 2010)
